Reference: patent US20040248762A1, “Malodor counteractant compositions” (priority 2003, published 2004)
Where “and” joins values, the source holds several entries; their conditions need not be identical. Identical values can stand only once.

Columns and labels:
[1] = MOC of sweat malodor on fabric swatches; design: species or system human; details: summary of Table 6
Experimental: The following fabric treatment solutions were prepared:
1. A solution of ethanol and Cremophor (a hydrogenated ethoxylated castor oil marketed by BASF Corp., Mount Olive, N.J.) containing 10% (wt) of dihexyl fumerate (DHF).
2. A solution of ethanol and Cremophor containing 10% (wt) of OMC.
3. A solution of ethanol and Cremophor containing 5% (wt) of DHF+5% (wt) OMC.
Five (5) fabric swatches were prepared, and labeled A-E. Swatch A was designated as the control swatch with no malodor. 100 μl of sweat malodor was placed in the middle of swatches B-E. Swatch B was designated as the control swatch for the malodor. The swatches were allowed to equilibrate with the malodor for 20 minutes. Onto swatches C-E, the following solutions were sprayed:
The malodor intensity on the cotton swatches was evaluated as follows:
The malodor intensity on swatch B (Malodor Control) was identified as a 5 (overpoweringly strong) on the scale of 1-5 set forth below at every time point, and the rest of swatches were evaluated based on that standard.

[2] = Synthetic axilla malodor on cotton pads, panel rating of malodor strength; design: species or system human; details: scale 5 overpowering to 1 not detectable; for 5% OMC + 5% Compound B (axilla malodor panel score): mixture 5% OMC + 5% Compound B
Experimental: 100 μl of synthetic axilla malodor was placed onto cotton pads. 0.4 g of an ethanolic solution containing 10% (wt) of a test compound identified in Table 1 was placed on each axilla malodor treated cotton pad. Each pad was allowed to dry 15 for minutes, and then evaluated using a 10-member panel after 3 hours. The test cotton pads were randomized, and each panelist was asked to check a box that represented the strength of the axilla malodor using the following scale:
In this example, the MOC effect of various mixtures of a Class A MOC compound and a Class B MOC compound (i.e., dihexyl fumerate as disclosed in Kulka, U.S. Pat. No. 3,074,892) were evaluated using the same test and malodor evaluation procedures as set forth in Example 1. Each test solution contained 5% (wt) DHF and 5% (wt) of the Class A compound identified in Table 3. The MOC effect was evaluated as in Example 1.
Various mixtures of OMC (a Class A Compound) and a Class B compound (i.e., various cyclohexyl esters as disclosed in Schleppnik '221) as identified in Table 4 below were made according to the procedure set forth in Example 1. The MOC of each mixture was evaluated using the procedure set forth in Example 1.

SMILES	MOC effect on sweat malodor on fabric (in words) [1]	10% test (Compound B Alone) (axilla malodor panel score) ([2]; 10% Compound B alone, procedure of Example 1)	5% OMC + 5% Compound B (axilla malodor panel score) ([2]; procedure of Example 1)	10% OMC (Alone) (axilla malodor panel score) ([2]; 10% OMC alone, run beside the Compound B of that table line)
CCCCCCOC(=O)/C=C/C(=O)OCCCCCC [Dihexyl Fumerate, reference compound]	had a MOC effect	2.6	2.3	
CCCCC(CC)COC(=O)/C=C/c1ccc(OC)cc1 (stereo not drawn) [OMC, Octyl methoxy cinnamate]	had a MOC effect		acts at least additively	3.1 and 2.6 and 3.2
